Tests used:
[1] = Lactone/carboxylate form and lactone half-life in plasma; format: in vitro ADME, rat
[2] = Lactone/carboxylate equilibrium in aqueous solution at physiological pH; format: physicochemical; conditions: physiological pH (7.4)
[3] = compared with FDA approved camptothecin analogs (e.g., Camptosar and Hycamtin); cited from earlier work

SMILES	Fraction in lactone (active) form ([1]; in plasma) [%]	half-life ([1]; rat plasma) [min]	Fraction in the carboxylate form [2]	Potency in in vitro cytotoxicity assays [3]
CC[C@@]1(O)C(=O)OCc2c1cc1n(c2=O)Cc2cc3ccccc3nc2-1 [camptothecin]	~30	~40	approximately 70%	
CC[C@@]1(O)C(=O)OCc2c1cc1n(c2=O)Cc2c-1nc1ccc(O)cc1c2[Si](C)(C)C(C)(C)C [DB-67, 7-t-butyldimethylsilyl-10-hydroxycamptothecin]				at least comparable potency

Reference: US8067432B2, “Liposomal, ring-opened camptothecins with prolonged, site-specific delivery of active drug to solid tumors” (University of Kentucky Research Foundation, priority 2008, dated 2011)
